For data set [1], the system named is Staphylococcus aureus. Briefly: Antibacterial activity against methicillin-resistant Staphylococcus aureus infected in cyclophosphamide-injected Kunming mouse model of skin wound infection assessed as wound scabbing at 2 to 4 mg/kg measured after 2 days by photographic analysis. It is filed as functional, organism-based. To be noted: dose 2-4 mg/kg, time 2.0 day.

Data set [2] deals with Cell membrane. Briefly: Disruption of cell membrane integrity in methicillin-resistant Staphylococcus aureus assessed as increase in ROS level at 2 to 8 times of MIC incubated for 1 hrs. In kind it is subcellular.
The subject of data set [3] is Staphylococcus aureus. Briefly: Synergistic antibacterial activity against methicillin-resistant Staphylococcus aureus assessed as fractional inhibitory concentration index in presence of fluconazole. In kind it is functional.
Data set [4] has as its system Staphylococcus aureus. Briefly: Antimicrobial activity against Staphylococcus aureus 29. It is filed as functional.
Data set [5] deals with Cell membrane. Briefly: Disruption of cell membrane integrity in methicillin-resistant Staphylococcus aureus assessed as increase in PI fluorescence at 2 to 8 times of MIC by PI staining based fluorescence analysis. It is filed as subcellular.
In data set [6] the test system is Staphylococcus aureus. Briefly: Antibacterial activity against methicillin-resistant Staphylococcus aureus in presence of DNA. In kind it is functional, organism-based.
Data set [7] deals with Staphylococcus aureus. Briefly: Synergistic antibacterial activity against methicillin-resistant Staphylococcus aureus assessed as fractional inhibitory concentration index in presence of streptomycin. It is filed as functional.
The subject of data set [8] is Staphylococcus aureus. Briefly: Synergistic antibacterial activity against methicillin-resistant Staphylococcus aureus assessed as fractional inhibitory concentration index in presence of polymyxin B. It is filed as functional, organism-based.
Data set [9] concerns Staphylococcus aureus. Briefly: Selectivity ratio of MBEC for methicillin-resistant Staphylococcus aureus to MIC for methicillin resistant Staphylococcus aureus. In kind it is functional.
Data set [10] concerns Staphylococcus aureus. Briefly: Antimicrobial activity against methicillin-resistant Staphylococcus aureus in presence of phosphatidylethanolamine. In kind it is functional, organism-based.
Another data set has as its system DNA. Briefly: Binding affinity to methicillin-resistant Staphylococcus aureus DNA assessed as effect on helical structure by measuring change in positive and negative peaks at 10 to 40 microg/ml by CD spectra. In kind it is nucleic-acid assay. To be noted: dose 10-40 µg/ml.
A further data set concerns Pseudomonas aeruginosa. Briefly: Antimicrobial activity against Pseudomonas aeruginosa. It is filed as functional.
Data set [11] is described as follows: Selectivity index, ratio of HC50 for hemolytic activity against Mianyang red blood cells (unknown origin) to MIC for antimicrobial activity against methicillin resistant Staphylococcus aureus 003. To be noted: read-out: Selectivity Index. It is filed as toxicity, cell-based, RBC.
The test system of data set [12] is Staphylococcus aureus. Briefly: Synergistic antibacterial activity against methicillin-resistant Staphylococcus aureus assessed as fractional inhibitory concentration index in presence of norfloxacin. In kind it is functional, organism-based.

≈ marks a conversion by molar mass, not a printed value. Calls of active or inactive are those of the source. The calls are words filed in the database; no cut-off is given here.

The MIC is the least concentration at which growth counts as inhibited. The low end stands for inhibition by little substance, the high end for a need for much substance. Take `CC(=O)O[C@H]1CC[C@]2(C)[C@H]3CC=C4[C@@H]5CC(C)(C)CC[C@]5(C(=O)NCCCNC(=N)N)CC[C@@]4(C)[C@]3(C)CC[C@H]2C1(C)C`: the result in the data set with Staphylococcus aureus [1], in the data set on Cell membrane [2], in the data set on Staphylococcus aureus [3], in the data set with Cell membrane [5], with Staphylococcus aureus [7] and in the data set with Staphylococcus aureus [8] was Active. Besides, the outcome in the data set with DNA and in the data set with Staphylococcus aureus [12] was Active. The MIC was 1 µg/mL (≈ 1.68 µM) in the data set with Staphylococcus aureus [4] and > 64 µg/mL in the data set with Pseudomonas aeruginosa. Further, the result in the data set with Staphylococcus aureus [6] and in the data set with Staphylococcus aureus [10] was inactive. Further, the selectivity ratio in the data set on Staphylococcus aureus [9] came to 16; in data set [11], 399.

Values taken from ChEMBL document CHEMBL6127107, “Oleanolic acid derivatives against drug-resistant bacteria and fungi by multi-targets to avoid drug resistance” (Eur J Med Chem, 2024).
